# Columns and labels:
# [1] = system: cancer cell W-2K-11; test: Growth inhibition of cancer cell W-2K-11 (percent inhibition of cell multiplication, Table 2); format: cell-based, mouse; conditions: Mus musculus, 48 hours after addition of sample, W-2K-11 cells; for inhibition at 10 µg/mL: concentration 10 μg/ml
# Method: Cancer cell W-2K-11 was obtained by transforming fibroblast C3H-2K clone derived from kidney of mouse by cancerogenic virus. The cancer cell W-2K-11 was cultured by the following method.
# (1) Preparation of culture medium
# 9.4 Gram of Eagle's MEM culture media (manufactured by Nissui Seiyaku K. K.) was dissolved in 900 ml. of distilled water and the solution was sterilized under high pressure at 120° C. for 15 minutes and cooled. 100 Ml. of calf serum and 3-5 ml. of 10% aqueous solution of sodium bicarbonate were added to the solution to adjust pH to 7.1-7.2. 10 Ml. of an aqueous solution of L-glutamine (2.92 g./100 ml.) filtered by a millipore filter was added just before the use of the solution as culture medium.
# (2) Preparation of transplanted cell solution
# The cancer cell W-2K-11 stored in a freezer at -80° C. was melted at room temperature and treated by a centrifugal separator at 670 g. for 5 minutes. The precipitated cell was dispersed in 50 ml. of the culture medium (1). The suspension was charged into Roux flask and cultured at 37° C. The multiplication of the cells was initiated and accomplished after 3 to 4 days. The cultured mixture was decanted and 10 ml. of 0.2% trypsin solution was added and the mixture was kept at room temperature for 2 to 3 minutes and the trypsin mixture was decanted and then, 50 ml. of the culture medium (1) was added to prepare a suspension of cells.
# (3) Incubation of cells and addition of sample
# 1.8 Ml. of the suspension of cells (2) was charged into each Petri dish and incubated in a carbon dioxide gas incubator (5% of CO2; 95% of air) at 37° C. Twenty four hours after the initiation of the incubation, 0.2 ml. of each ethanol solution of each sample was added, and the incubation was continued. Forty eight hours after the addition of the sample, numbers of survival cells were counted under a microscopic observation and each percent inhibition of cell multiplication was calculated. [formula]
# [2] = Acute toxicity, LD50 to mouse by intraperitoneal injection (Table 3); conditions: in vivo, ip
# Method: LD50 of each sample to mouse was measured by intraperitoneal injection of each sample.
# [3] = read-out: Percent inhibition (%)
Structure (SMILES),"inhibition at 1 µg/mL ([1]; concentration 1 μg/ml, read-out: Percent inhibition (%)) [%]","inhibition at 10 µg/mL [1, 3] [%]",LD50 [2] [mg/kg],inhibition at 1.2 µg/mL ([1]; concentration 1.2 μg/ml) [%]
"COC1=C2CC(C)CC(OC)C(O)C(C)C=C(C)C(OC(N)=O)C(OC)C=CC=C(C)C(=O)NC(=C(N(C)C)C1=O)C2=O (stereo not shown) [Example 36, 19-dimethylamino-Geldanamycin]",70,84,> 240,
COC1=C2C[C@@H](C)C[C@H](OC)[C@H](O)[C@@H](C)/C=C(\C)[C@H](OC(N)=O)[C@@H](OC)/C=C\C=C(/C)C(=O)NC(=CC1=O)C2=O [Geldanamycin],,,15,61
"COC1=C2CC(C)CC(OC)C(O)C(C)C=C(C)C(OC(N)=O)C(OC)C=CC=C(C)C(=O)N(C)C(=CC1=O)C2=O (stereo not shown) [Example 41, 21-N-methyl-Geldanamycin]",,82,120,
